Data reported in patent publication US20260034044A1, “A PRESERVATIVE COMPOSITION” (AnalytiCon Discovery - Zweigniederlassung der BRAIN Biotech …, priority 2022, published 2026).
Values after ≈ are worked out from the molar mass of the structure shown.

Key:
Format in all cases: cell-based
[1] = test system: Actinomyces viscosus DSM43798; assay: Antimicrobial activity (MIC); details: potato dextrose broth pH 3.8, visual evaluation, read-out: Minimal Inhibitory Concentration (MIC)
[2] = test system: Alternaria alternata DSM 12633; assay: Antimicrobial activity (MIC); details: DSM12633, potato dextrose broth pH 3.8, visual evaluation, read-out: Minimal Inhibitory Concentration (MIC)
[3] = test system: Zygosaccharomyces bailii DSM 70834; assay: Antimicrobial activity (MIC); details: DSM70834, potato dextrose broth pH 3.8, visual evaluation, read-out: Minimal Inhibitory Concentration (MIC)
[4] = test system: Cutibacterium acnes DSM 1897; assay: Antimicrobial activity (MIC); details: DSM1897, potato dextrose broth pH 3.8, visual evaluation, read-out: Minimal Inhibitory Concentration (MIC)
[5] = test system: Fusobacterium nucleatum subsp. vincentii DSM 19507; assay: Antimicrobial activity (MIC); details: DSM19507, potato dextrose broth pH 3.8, visual evaluation, read-out: Minimal Inhibitory Concentration (MIC)
[6] = test system: Bacillus cereus DSM4490; assay: Antimicrobial activity (MIC); details: potato dextrose broth pH 3.8, visual evaluation, read-out: Minimal Inhibitory Concentration (MIC)
[7] = test system: Botrytis cinerea DSM 5145; assay: Antimicrobial activity (MIC); details: DSM5145, potato dextrose broth pH 3.8, visual evaluation, read-out: Minimal Inhibitory Concentration (MIC)
[8] = test system: Candida parapsilosis ATCC 20384; assay: Antimicrobial activity (MIC); details: Lodderomyces parapsilosis, ATCC20384, potato dextrose broth pH 3.8, visual evaluation, read-out: Minimal Inhibitory Concentration (MIC)
[9] = test system: Staphylococcus aureus DSM 2569; assay: Antimicrobial activity (MIC); details: DSM2569, potato dextrose broth pH 3.8, visual evaluation, read-out: Minimal Inhibitory Concentration (MIC)
[10] = test system: Clostridium perfringens DSM 756; assay: microbe, parasite or virus in culture; details: DSM756, pH 3.8, read-out: Minimal Inhibitory Concentration (MIC)
[11] = test system: Listeria monocytogenes DSM 20600; assay: Antimicrobial activity (MIC); details: DSM20600, potato dextrose broth pH 3.8, visual evaluation, read-out: Minimal Inhibitory Concentration (MIC)
[12] = test system: Pasteurella multocida ssp. multocida DSM 16031; assay: Antimicrobial activity (MIC); details: DSM16031, potato dextrose broth pH 3.8, visual evaluation, read-out: Minimal Inhibitory Concentration (MIC)
[13] = test system: Campylobacter jejuni DSM 4688; assay: Antimicrobial activity (MIC); details: DSM4688, potato dextrose broth pH 3.8, visual evaluation, read-out: Minimal Inhibitory Concentration (MIC)
[14] = test system: Pseudomonas aeruginosa DSM 1117; assay: Antimicrobial activity (MIC); details: DSM1117, potato dextrose broth pH 3.8, visual evaluation, read-out: Minimal Inhibitory Concentration (MIC)
[15] = test system: Malassezia furfur DSM 6170; assay: Antimicrobial activity (MIC); details: DSM6170, potato dextrose broth pH 3.8, visual evaluation, read-out: Minimal Inhibitory Concentration (MIC)

Molecule C[C@H]1CC[C@@]2(OC1)O[C@H]1CC3C4CC[C@H]5C[C@@H](O[C@@H]6O[C@H](CO)[C@H](O[C@@H]7O[C@H](CO)[C@@H](O)[C@H](O[C@@H]8OC[C@@H](O)[C@H](O)[C@H]8O)[C@H]7O[C@@H]7O[C@H](CO)[C@@H](O)[C@H](O)[C@H]7O)[C@H](O)[C@H]6O)[C@H](O)C[C@]5(C)C4=CC(=O)[C@]3(C)[C@H]1[C@@H]2C (stereo partly drawn) [A] has an MIC [1] of over 80 µg/mL, an MIC [2] of over 80 µg/mL and an MIC [3] of over 80 µg/mL. It also gave an MIC [4] of over 80 µg/mL, an MIC [5] of 80 µg/mL (≈ 75.2 µM) and an MIC [6] of over 80 µg/mL. For the same molecule, the MIC [7] was over 80 µg/mL, the MIC [8] was over 80 µg/mL and the MIC [9] was over 80 µg/mL. The MIC [10] was over 80 µg/mL, the MIC [11] was over 80 µg/mL and the MIC [12] was over 80 µg/mL. For the same molecule, the MIC [13] was over 80 µg/mL, the MIC [14] was over 80 µg/mL and the MIC [15] was over 80 µg/mL.

With C[C@@H]1CC[C@@]2(OC1)O[C@H]1CC3C4CC=C5CC(O[C@@H]6O[C@H](CO)[C@@H](O[C@@H]7O[C@@H](C)[C@H](O[C@@H]8O[C@@H](C)[C@H](O)[C@@H](O)[C@H]8O)[C@@H](O)[C@H]7O)[C@H](O)[C@H]6O[C@@H]6O[C@@H](C)[C@H](O)[C@@H](O)[C@H]6O)CC[C@]5(C)C4CC[C@]3(C)[C@@]1(O)[C@@H]2C (stereo partly drawn) [B] the MIC [1] was over 80 µg/mL, the MIC [2] was over 80 µg/mL and the MIC [3] was over 80 µg/mL. The MIC [4] was over 80 µg/mL, the MIC [5] was over 80 µg/mL and the MIC [6] was over 80 µg/mL. It also gave an MIC [7] of over 80 µg/mL, an MIC [8] of over 80 µg/mL and an MIC [9] of over 80 µg/mL. It also gave an MIC [10] of over 80 µg/mL, an MIC [11] of over 80 µg/mL and an MIC [12] of over 80 µg/mL. It also gave an MIC [13] of over 80 µg/mL, an MIC [14] of over 80 µg/mL and an MIC [15] of 80 µg/mL (≈ 77.6 µM).

In the case of CC1CC[C@@]2(OC1)O[C@H]1CC3C4CC=C5C[C@@H](O[C@@H]6O[C@H](CO)[C@@H](O[C@@H]7O[C@@H](C)[C@H](O)[C@@H](O)[C@H]7O)[C@H](O)[C@H]6O[C@@H]6O[C@@H](C)[C@H](O)[C@@H](O)[C@H]6O)CC[C@]5(C)C4CC[C@]3(C)[C@@]1(O)[C@@H]2C (stereo partly drawn) [C], the MIC [1] is reported as over 80 µg/mL, the MIC [2] is reported as over 80 µg/mL and the MIC [3] is reported as over 80 µg/mL. For the same molecule, the MIC [4] was over 80 µg/mL, the MIC [5] was over 80 µg/mL and the MIC [6] was over 80 µg/mL. The MIC [7] was over 80 µg/mL, the MIC [8] was over 80 µg/mL and the MIC [9] was over 80 µg/mL. The MIC [10] was over 80 µg/mL, the MIC [11] was over 80 µg/mL and the MIC [12] was over 80 µg/mL. For the same molecule, the MIC [13] was over 80 µg/mL, the MIC [14] was over 80 µg/mL and the MIC [15] was 80 µg/mL (≈ 90.4 µM).

C[C@H]1CC[C@@]2(OC1)O[C@H]1CC3C4CC[C@H]5C[C@@H](O[C@@H]6O[C@H](CO)[C@H](O[C@@H]7O[C@H](CO)[C@@H](O)[C@H](O)[C@H]7O[C@@H]7O[C@H](CO)[C@@H](O)[C@H](O)[C@H]7O)[C@H](O)[C@H]6O)[C@H](O)C[C@]5(C)C4=CC(=O)[C@]3(C)[C@H]1[C@@H]2C (stereo partly drawn) [D] showed an MIC [1] of over 80 µg/mL, an MIC [2] of over 80 µg/mL and an MIC [3] of over 80 µg/mL. The MIC [4] was over 80 µg/mL, the MIC [5] was 80 µg/mL (≈ 85.9 µM) and the MIC [6] was over 80 µg/mL. It also gave an MIC [7] of over 80 µg/mL, an MIC [8] of over 80 µg/mL and an MIC [9] of over 80 µg/mL. The MIC [10] was over 80 µg/mL, the MIC [11] was over 80 µg/mL and the MIC [12] was over 80 µg/mL. It also gave an MIC [13] of over 80 µg/mL, an MIC [14] of over 80 µg/mL and an MIC [15] of over 80 µg/mL.
